Data taken from patent US5348980A, “Enantiomers derived from (S)-2-amino-2-(3,4-dichlorobenzyl)-1-propanol, their use and method of preparation” (Institute de Recherche Jouveinal, priority 1992, dated 1994).
Where a name gives a salt, the structure may show the parent alone.

Legend:
[1] = system: bronchoconstriction caused by 100 μmol/kg of histamine; experiment: Histamine-induced bronchoconstriction test (Konzett and Rossler), intraduodenal (i.d.) administration; type: in vivo, guinea pigs; conditions: for ED50: Cavia porcellus; for ED50, inhibition of histamine-induced bronchoconstriction, t = 20': 20 min
From the text: (§1) Furthermore, the antihistaminic properties were studied in guinea pigs by the bronchoconstriction test performed according to the method of H. Konzett and R. Rossler (Arch. Exp. Path. Pharmak.--Naunym Schmiedeberg - 195, 71-74, 1940).
(§2) The products of the invention were studied in this test after administration in solution or in suspension via the intravenous and intraduodenal routes, and also in powder form via the intranasal route.
(§3) Irrespective of the administration route, the preparation of the animals employed in the test consists in first anesthetizing male guinea pigs weighing 350 to 400 g by intraperitoneal (i.p.) injection of a sterile and isotonic solution containing 25% (w/v.) of ethyl carbamate on the basis of 6.0 ml/kg, and in then fitting the animals with a tracheal cannula to permit measurement of the pulmonary pressure, a cannula in the right jugular vein for the intravenous (i.v.) administration of solution, and also a cannula in the left carotid artery for qualitative observation of the blood pressure.
(§4) The animals are then connected to a pump (Harvard, ref. 50-1718) in order to maintain an artificial ventilation at a frequency of 60 insufflations per minute; the intratracheal pressure is recorded by an assembly comprising a transducer, an amplifier and a recorder (Gould, respective refs.: PLOEZ, 13-4615-50 and 8188-G4400-06).
(§5) Fitted in this way, the animals are left undisturbed for 10 minutes before the beginning of the actual experiment, which is carried out in different ways according to the administration route envisaged.
In base form, the test products are suspended in a solution containing 1% w/v of carboxymethylcellulose (CMC), and, in salt form, they are dissolved in an isotonic solution before being administered via a cannula whose end is placed in the animal's duodenum.
The time schedule for the successive administrations of histamine via the i.v. route and that for the test solution via the i.d. route are identical to that described above in a).
(§6) - Calculation and expression of the results:
(§7) For each administration route and for each time of administration of histamine, the activity of the products is expressed as the percentage change in amplitude of bronchoconstriction, calculated relative to that produced by the "control" administration of histamine which precedes the administration of the test product. The % change is calculated according to the formula: [formula] in which: Bc(tx) represents the amplitude of the bronchoconstriction in mm at time x,
(§8) Bo(tx) the amplitude of the base-line respiration in mm at time x,
(§9) Bc(to) and Bo(to) the corresponding amplitudes in mm on receipt of the "control" administration of histamine which precedes that of the test product.
(§10) The inhibitory activity of the test products on histamine-induced bronchoconstriction is expressed at different times of the studies as their ED50, which is the effective dose of product, expressed in μmol/kg, capable of inhibiting 50% of the histamine-induced bronchoconstriction at the time in question.
(§11) Failing this expression, the results are expressed as a % change at the time in question and for a given concentration of the test product. Under these conditions, a positive percentage corresponds to a potentiating effect on bronchoconstriction and, conversely, a negative percentage to an inhibitory effect.
(§12) Statistical analyses of the results were carried out by the Student t test. A value of p<0.05 is considered significant.
(§13) The compounds of the invention described in Examples 1 and 2 were employed in these tests. In addition, as a comparative product for the eutomer of Example 1, the racemic (R,S) compound corresponding to it, and which is described and prepared in Example 7 of U.S. Pat. No. 4,994,617, was employed. […]

[2] = system: bronchoconstriction caused by 100 μmol/kg of histamine; experiment: Histamine-induced bronchoconstriction test (Konzett and Rossler), i.v. administration; type: in vivo, guinea pigs; conditions: for ED50: Cavia porcellus, iv
From the text: as §1, §2, §3, §4, §5
In base form, the test products are dissolved in an isotonic solution (0.9% NaCl) containing 10% (v/v) of Transcutol (R). Dilutions are performed by adding isotonic solution. In salt, in particular hydrochloride, form, the solutions are prepared in the isotonic solution.
The treatment of the animals consists of a series of administrations of histamine dihydrochloride solution on the basis of 100 μmol/kg before and after treatment with the solution of test product, which is carried out according to the following time schedule:
t=-20 minutes - histamine (100 μmol/kg)
t=-10 minutes - ditto control
t=0 - injection of the test product
t=+10 minutes - histamine (100 μmol/kg)
as §6, §7, §8, §9, §10, §11, §12, §13

[3] = 0.5 h, t = 30', read-out: ED50, inhibition of histamine-induced bronchoconstriction, t = 30'
[4] = 40 min, t = 40', read-out: ED50, inhibition of histamine-induced bronchoconstriction, t = 40'
[5] = 50 min, t = 50', read-out: ED50, inhibition of histamine-induced bronchoconstriction, t = 50'
[6] = 1 h, t = 60', read-out: ED50, inhibition of histamine-induced bronchoconstriction, t = 60'
[7] = 10 min, t = 10', read-out: ED50, inhibition of histamine-induced bronchoconstriction, t = 10'

`C=CCN(C)[C@](C)(CO)Cc1ccc(Cl)c(Cl)c1` [Example 2, base, (S)-(+)-N-allyl-2-methylamino-2-(3,4-dichlorobenzyl)-1-propanol] showed an ED50 [1, 3] of 0.59 µmol/kg, an ED50 [1, 4] of 0.65 µmol/kg and an ED50 [1, 5] of 0.63 µmol/kg. The ED50 [1, 6] was 0.62 µmol/kg, the “ED50, inhibition of histamine-induced bronchoconstriction, t = 20'” value (“ED50, inhibition … t = 20'” for short) [1] was 1.45 µmol/kg and the ED50 [2, 7] was 1.27 µmol/kg. It also gave an ED50 ([2]; 20 min, t = 20', read-out: ED50, inhibition of histamine-induced bronchoconstriction, t = 20') of 0.93 µmol/kg, an ED50 [2, 3] of 0.74 µmol/kg and an ED50 [2, 4] of 0.96 µmol/kg. For the same compound, the ED50 [2, 5] was 1.01 µmol/kg and the ED50 [2, 6] was 0.76 µmol/kg.
For `C=CCN(C)[C@](C)(CO)Cc1ccc(Cl)c(Cl)c1` [Example 2, hydrochloride, (S)-(+)-N-allyl-2-methylamino-2-(3,4-dichlorobenzyl)-1-propanol], the ED50 [1, 7] was 1.59 µmol/kg, the “ED50, inhibition … t = 20'” value [1] was 0.42 µmol/kg and the “ED50, inhibition of histamine-induced bronchoconstriction, t = 30'” value ([1]; t = 30', 30 min) was 0.33 µmol/kg. The “ED50, inhibition of histamine-induced bronchoconstriction, t = 40'” value ([1]; t = 40', 40 min) was 0.48 µmol/kg, the “ED50, inhibition of histamine-induced bronchoconstriction, t = 50'” value ([1]; t = 50', 50 min) was 0.51 µmol/kg and the “ED50, inhibition of histamine-induced bronchoconstriction, t = 60'” value ([1]; t = 60', 60 min) was 0.56 µmol/kg. The “ED50, inhibition of histamine-induced bronchoconstriction, t = 10'” value ([2]; t = 10', 10 min) was 1.68 μmol/kg, the “ED50, inhibition … t = 20'” value ([2]; t = 20', 20 min) was 0.70 µmol/kg and the “ED50, inhibition of histamine-induced bronchoconstriction, t = 30'” value ([2]; t = 30', 30 min) was 0.58 µmol/kg. For the same compound, the “ED50, inhibition of histamine-induced bronchoconstriction, t = 40'” value ([2]; t = 40', 40 min) was 0.57 µmol/kg, the “ED50, inhibition of histamine-induced bronchoconstriction, t = 50'” value ([2]; t = 50', 50 min) was 0.51 µmol/kg and the “ED50, inhibition of histamine-induced bronchoconstriction, t = 60'” value ([2]; t = 60', 60 min) was 0.53 µmol/kg.
